Experimental findings from US9617244B2, “Antibacterial quinoline derivatives” (JANSSEN PHARMACEUTICA NV, priority 2012, dated 2017) are described below.

In series [1] the test system is Mycobacterium smegmatis (ATCC607). Nature of the series: In-vitro anti-bacterial activity against strain M. Smegmatis ATCC607. It counts as cell-based. To be noted: 90% inhibitory concentration for bacterial growth, Alamar Blue fluorescence; for IC90: Mycolicibacterium smegmatis, ATCC607, 48 h, read-out: IC90 MSM 607; for IC90 MSM 607: 48 hours. An outline of the steps: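 IC90 (μg/ml) derived from Alamar Blue fluorescence (530/590 nm) after 48 h growth at 37 °C under 5% CO2. About 250 CFU per well in Mueller-Hinton broth faced five-fold serial compound dilutions in BSA-containing wells.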

The test system of series [2] is Staphylococcus aureus (ATCC29213). Nature of the series: In-vitro anti-bacterial activity, microtitre plate assay, IC90 determination (non-mycobacterial strains). It counts as cell-based. The following applies: 90% inhibitory concentration for bacterial growth, resazurin fluorescence; for IC90: Staphylococcus aureus, ATCC29213, 24 h, read-out: IC90 STA B29213; for IC90 STA B29213: 24 hours. An outline of the steps:
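Growth inhibition measured fluorometrically with resazurin (530/590 nm) after overnight 37 °C incubation under normal atmosphere. Bacteria added at roughly 100 TCID50 per well in Mueller-Hinton broth to five-fold compound dilution series; IC90 reported in μg/ml.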

Converted amounts (≈) assume the structure as drawn. Some results are limits rather than exact numbers.

Consider `COc1nc2ccc(Br)cc2cc1C(c1ccc(Cl)cc1)C1(O)CCNC(C)C1` (stereo not drawn) [Compound 124], for which the melting point was found to be 164 °C. The IC90 in series [1] was determined as 3 µg/mL (≈ 6.3 µM). In series [2], the IC90 turned out to be 3 µg/mL (≈ 6.3 µM).

On to `COc1nc2ccc(SC)cc2cc1C(c1ccccc1)C1(O)CCNC(Cc2ccccc2)C1` (stereo not drawn) [Compound 142], for which the melting point is 190 °C. The “IC90 MSM 607” value in series [1] was 2.16 µg/mL (≈ 4.46 µM). Besides, the “IC90 STA B29213” value in series [2] was found to be 3.06 µg/mL (≈ 6.31 µM).

For the compound `CS(=O)(=O)c1ccc2[nH]c(=O)c(C(c3ccccc3)C3(O)CCNC(Cc4ccccc4)C3)cc2c1` (stereo not drawn) [Compound 153], the melting point came out at 183 °C. In series [1], the 90% effect concentration (IC90) was more than 12.6 µg/mL. Also, in series [2], the IC90 is more than 12.6 µg/mL.

Consider `CS(=O)(=O)c1ccc2[nH]c(=O)c(C(c3ccccc3)C3(O)CCNC(Cc4ccccc4)C3)cc2c1` (stereo not drawn) [Compound 154], for which the melting point was 250 °C. Further, in series [1], the “IC90 MSM 607” value was more than 12.63 µg/mL. Also, in series [2], the “IC90 STA B29213” value was more than 12.63 µg/mL.

For `CS(=O)(=O)c1ccc2[nH]c(=O)c(C(c3ccccc3)C3(O)CCNC(Cc4ccccc4)C3)cc2c1` (stereo not drawn) [Compound 155], the melting point turned out to be 194 °C. In addition, the “IC90 MSM 607” value in series [1] was more than 12.63 µg/mL. Further, the “IC90 STA B29213” value in series [2] was more than 12.63 µg/mL.

`CS(=O)(=O)c1ccc2[nH]c(=O)c(C(c3ccccc3)C3(O)CCNC(Cc4ccccc4)C3)cc2c1` (stereo not drawn) [Compound 156]: the melting point was 254 °C. Besides, the “IC90 MSM 607” value in series [1] is 11.25 µg/mL (≈ 22.4 µM). In addition, the “IC90 STA B29213” value in series [2] is more than 12.63 µg/mL.

As to `COc1nc2ccc(S(C)(=O)=O)cc2cc1C(c1ccccc1)C1(O)CCNC(Cc2ccccc2)C1` (stereo not drawn) [Compound 157], the melting point is 100 °C. Further, the IC90 in series [1] was more than 13 µg/mL. Further, the IC90 in series [2] is more than 13 µg/mL.

On to `COc1nc2ccc(S(C)(=O)=O)cc2cc1C(c1ccccc1)C1(O)CCNC(Cc2ccccc2)C1` (stereo not drawn) [Compound 158], for which the melting point came to 198 °C. In addition, the “IC90 MSM 607” value in series [1] is more than 12.98 µg/mL. Further, in series [2], the “IC90 STA B29213” value is more than 12.98 µg/mL.

The compound `COc1nc2ccc(SC)cc2cc1C(c1ccccc1)C1(O)CCNC(c2ccc(F)cc2C)C1` (stereo not drawn) [Compound 168] had a melting point of 169 °C. In series [1], the “IC90 MSM 607” value was 1.42 µg/mL (≈ 2.82 µM). The “IC90 STA B29213” value in series [2] amounted to 3.17 µg/mL (≈ 6.31 µM).

For `COc1nc2ccc(S(C)(=O)=O)cc2cc1C(c1cccc(Cl)c1)C1(O)CCNC(c2ccc(F)cc2C)C1` (stereo not drawn) [Compound 171], the melting point is 161 °C. Also, the “IC90 MSM 607” value in series [1] was found to be 5.69 µg/mL (≈ 10 µM). For the same compound, the “IC90 STA B29213” value in series [2] amounted to 7.16 µg/mL (≈ 12.6 µM).

In turn, `COc1nc2ccc(S(C)(=O)=O)cc2cc1C(c1cccc(Cl)c1)C1(O)CCNC(c2ccc(F)cc2C)C1` (stereo not drawn) [Compound 172] returned a melting point of 170 °C. The “IC90 MSM 607” value in series [1] is 3.59 µg/mL (≈ 6.31 µM). Moreover, in series [2], the “IC90 STA B29213” value is 7.16 µg/mL (≈ 12.6 µM).

`CSc1ccc2[nH]c(=O)c(C(c3cccc(Cl)c3)C3(O)CCNC(c4ccc(F)cc4C)C3)cc2c1` (stereo not drawn) [Compound 174] displayed a melting point of 171 °C. For the same compound, the “IC90 MSM 607” value in series [1] amounted to 3.30 µg/mL (≈ 6.31 µM). The “IC90 STA B29213” value in series [2] was found to be 3.30 µg/mL (≈ 6.31 µM).

In turn, `CSc1ccc2[nH]c(=O)c(C(c3cccc(Cl)c3)C3(O)CCNC(c4ccc(F)cc4C)C3)cc2c1` (stereo not drawn) [Compound 175] yielded a melting point of 194 °C. The “IC90 MSM 607” value in series [1] was 3.30 µg/mL (≈ 6.31 µM). Also, the “IC90 STA B29213” value in series [2] came to 2.34 µg/mL (≈ 4.47 µM).

Compound `CSc1ccc2[nH]c(=O)c(C(c3cccc(Cl)c3)C3(O)CCNC(c4ccc(F)cc4C)C3)cc2c1` (stereo not drawn) [Compound 176] showed a melting point of 192 °C. In addition, the “IC90 MSM 607” value in series [1] was 3.30 µg/mL (≈ 6.31 µM). Further, the “IC90 STA B29213” value in series [2] came out at 3.30 µg/mL (≈ 6.31 µM).

In the case of `CSc1ccc2[nH]c(=O)c(C(c3ccccc3)C3(O)CCNC(c4ccc(F)cc4C)C3)cc2c1` (stereo not drawn) [Compound 178], the melting point is more than 250 °C. For the same compound, the “IC90 MSM 607” value in series [1] came to 4.89 µg/mL (≈ 10 µM). Moreover, the “IC90 STA B29213” value in series [2] was found to be 6.15 µg/mL (≈ 12.6 µM).

For the compound `CSc1ccc2[nH]c(=O)c(C(c3ccccc3)C3(O)CCNC(c4ccc(F)cc4C)C3)cc2c1` (stereo not drawn) [Compound 180], the melting point came out at 186 °C. Moreover, the “IC90 MSM 607” value in series [1] is 3.08 µg/mL (≈ 6.3 µM). In series [2], the “IC90 STA B29213” value is 3.08 µg/mL (≈ 6.3 µM).

Consider `CSc1ccc2[nH]c(=O)c(C(c3ccccc3)C3(O)CCNC(c4ccc(F)cc4C)C3)cc2c1` (stereo not drawn) [Compound 181], for which the melting point came out at 173 °C. Moreover, the “IC90 MSM 607” value in series [1] amounted to 9.75 µg/mL (≈ 20 µM). Also, the “IC90 STA B29213” value in series [2] was determined as 6.15 µg/mL (≈ 12.6 µM).

In the case of `COc1nc2ccc(S(C)(=O)=O)cc2cc1C(c1ccccc1)C1(O)CCNC(c2ccc(F)cc2C)C1` (stereo not drawn) [Compound 184], the melting point is 172 °C. Moreover, the IC90 in series [1] was 13.4 µg/mL (≈ 25.1 µM). The IC90 in series [2] worked out at 13.4 µg/mL (≈ 25.1 µM).
